From patent US10398751B2, “Pharmaceutical compositions of water soluble peptides with poor solubility in isotonic conditions and methods for their use” (STRONGBRIDGE IRELAND LIMITED, priority 2016, dated 2019)
Where a name gives a salt, the structure may show the parent alone.

How the values were obtained:
[1] = Quantitative assessment of veldoreotide acetate solubility by HPLC; format: physicochemical; conditions: read-out: Solubility (g/liter) - HPLC
Excerpt: (§1) The solubility of veldoreotide acetate in aqueous media was screened by the following method. A fixed amount of 10 milligrams of the peptide was weighed and dissolved at ambient temperature by increased (incremental) volumes of the tested medium until a complete solubility was observed, i.e, clear/transparent solution and absence of any precipitates (the solubility endpoint values were defined according to USP guidance). Following the results of the screening studies, several media were selected for verification studies based on quantitative assessment of the peptide concentration by HPLC (maximal solubility). The results of the screening study are depicted in Table 1 while the results of the verification studies are included in Table 2.

[2] = Solubility screening of veldoreotide acetate (10 mg, incremental volumes of medium, USP definition); format: physicochemical
Excerpt: as §1

solubility ([1]; 20 mM HEPES buffer, 20 mM HEPES, pH 7.2): 212 g/L
solubility ([1]; 20 mM phosphate buffer, 20 mM Phosphate (10 mM Na2HPO4 + 10 mM NaH2PO4), pH 7.2): 212 g/L
solubility ([1]; 0.9% NaCl, pH 4.5): 2.31 g/L
solubility ([1]; PBS, pH 7.4): 3.25 g/L
solubility ([1]; water): 234 g/L
Results USP Definition ([2]; 10 mg in 0.1% TFA): Freely soluble
Results USP Definition ([2]; 10 mg in 0.1N HCL, acetate salt): Soluble
Results USP Definition ([2]; 10 mg in 0.1N HCL, listed as veldoreotide acetate, acetate salt): soluble
Results USP Definition ([2]; 10 mg in 0.9N HCL, acetate salt): Insoluble
Results USP Definition ([2]; 10 mg in 0.9N HCL, listed as veldoreotide acetate, acetate salt): insoluble
Results USP Definition ([2]; 10 mg in 2% Propylene glycol in olive oil (or cottonseed oil)): Sparingly
Results USP Definition ([2]; 10 mg in 10% EtOH (95%) in olive oil (or cottonseed oil)): Sparingly
Results USP Definition ([2]; 10 mg in Acetate saline 100 mM, Mannitol 250 mM (pH 4.3)): Slightly soluble
Results USP Definition ([2]; 10 mg in Acetic acid 1% (glacial)): Freely soluble
Results USP Definition ([2]; 10 mg in Acetone (USP)): Freely soluble
Results USP Definition ([2]; 10 mg in Caprylic acid): Soluble
Results USP Definition ([2]; 10 mg in DDW (Double distilled water)): Freely soluble
Results USP Definition ([2]; 10 mg in Dextrose 5% (USP)): Freely soluble
Results USP Definition ([2]; 10 mg in Ethanol (USP)): Freely soluble
Results USP Definition ([2]; 10 mg in Glycerol): Soluble
Results USP Definition ([2]; 10 mg in Lactic acid 37 mM, Mannitol 250 mM (pH 4.3)): Freely soluble
Results USP Definition ([2]; 10 mg in Oleic acid): Very slightly
Results USP Definition ([2]; 10 mg in PBS pH 7.2): Very slightly
Results USP Definition ([2]; 10 mg in Propylene glycol): Freely soluble
Results USP Definition ([2]; 10 mg in Refined vegetable oils, Olive, Cotton, Coconut, Canola): Insoluble
Results USP Definition ([2]; 10 mg in Saline (USP) (0.9% NaCl) pH 4.5): Very slightly
Results USP Definition ([2]; 10 mg in WFI-USP (water for injection)): Soluble
solubility ([2]; 0.1% TFA, 10 mg in 0.1% TFA, read-out: 0.01 ml Very soluble (1 g/ml)): < 1000 mg/mL
solubility ([2]; 0.1% TFA, 10 mg in 0.1% TFA, read-out: 0.5 ml Soluble (0.02 g/ml; 20 mg/ml)): > 20 mg/mL
solubility ([2]; 0.1% TFA, 10 mg in 0.1% TFA, read-out: 1 ml Sparingly soluble (0.01 g/ml; 10 mg/ml)): > 10 mg/mL
solubility ([2]; 0.1% TFA, 0.1 ml Freely soluble (0.1 g/ml), 10 mg in 0.1% TFA): > 100 mg/mL
solubility ([2]; 0.1% TFA, 10 ml Slightly soluble (0.001 g/ml; 1 mg/ml), 10 mg in 0.1% TFA): > 1 mg/mL
solubility ([2]; 0.1N HCl, 10 mg in 0.1N HCL, read-out: 0.01 ml Very soluble (1 g/ml)): < 1000 mg/mL
solubility ([2]; 0.1N HCl, 10 mg in 0.1N HCL, read-out: 0.5 ml Soluble (0.02 g/ml; 20 mg/ml)): > 20 mg/mL
solubility ([2]; 0.1N HCl, 10 mg in 0.1N HCL, read-out: 1 ml Sparingly soluble (0.01 g/ml; 10 mg/ml)): > 10 mg/mL
solubility ([2]; 0.1N HCl, 0.1 ml Freely soluble (0.1 g/ml), 10 mg in 0.1N HCL): > 100 mg/mL
solubility ([2]; 0.1N HCl, 10 ml Slightly soluble (0.001 g/ml; 1 mg/ml), 10 mg in 0.1N HCL): > 1 mg/mL
solubility ([2]; 0.9N HCl, 10 mg in 0.9N HCL, read-out: 0.01 ml Very soluble (1 g/ml)): < 1000 mg/mL
solubility ([2]; 0.9N HCl, 10 mg in 0.9N HCL, read-out: 0.5 ml Soluble (0.02 g/ml; 20 mg/ml)): < 20 mg/mL
solubility ([2]; 0.9N HCl, 10 mg in 0.9N HCL, read-out: 1 ml Sparingly soluble (0.01 g/ml; 10 mg/ml)): < 10 mg/mL
solubility ([2]; 0.9N HCl, 0.1 ml Freely soluble (0.1 g/ml), 10 mg in 0.9N HCL): < 100 mg/mL
solubility ([2]; 0.9N HCl, 10 ml Slightly soluble (0.001 g/ml; 1 mg/ml), 10 mg in 0.9N HCL): < 1 mg/mL
solubility ([2]; 2% propylene glycol in olive oil (or cottonseed oil), 10 mg in 2% Propylene glycol in olive oil (or cottonseed oil), read-out: 0.01 ml Very soluble (1 g/ml)): < 1000 mg/mL
solubility ([2]; 2% propylene glycol in olive oil (or cottonseed oil), 10 mg in 2% Propylene glycol in olive oil (or cottonseed oil), read-out: 0.5 ml Soluble (0.02 g/ml; 20 mg/ml)): < 20 mg/mL
solubility ([2]; 2% propylene glycol in olive oil (or cottonseed oil), 10 mg in 2% Propylene glycol in olive oil (or cottonseed oil), read-out: 1 ml Sparingly soluble (0.01 g/ml; 10 mg/ml)): > 10 mg/mL
solubility ([2]; 2% propylene glycol in olive oil (or cottonseed oil), 0.1 ml Freely soluble (0.1 g/ml), 10 mg in 2% Propylene glycol in olive oil (or cottonseed oil)): < 100 mg/mL
solubility ([2]; 2% propylene glycol in olive oil (or cottonseed oil), 10 ml Slightly soluble (0.001 g/ml; 1 mg/ml), 10 mg in 2% Propylene glycol in olive oil (or cottonseed oil)): > 1 mg/mL
solubility ([2]; 10% EtOH (95%) in olive oil (or cottonseed oil), 10 mg in 10% EtOH (95%) in olive oil (or cottonseed oil), read-out: 0.01 ml Very soluble (1 g/ml)): < 1000 mg/mL
solubility ([2]; 10% EtOH (95%) in olive oil (or cottonseed oil), 10 mg in 10% EtOH (95%) in olive oil (or cottonseed oil), read-out: 0.5 ml Soluble (0.02 g/ml; 20 mg/ml)): < 20 mg/mL
solubility ([2]; 10% EtOH (95%) in olive oil (or cottonseed oil), 10 mg in 10% EtOH (95%) in olive oil (or cottonseed oil), read-out: 1 ml Sparingly soluble (0.01 g/ml; 10 mg/ml)): > 10 mg/mL
solubility ([2]; 10% EtOH (95%) in olive oil (or cottonseed oil), 0.1 ml Freely soluble (0.1 g/ml), 10 mg in 10% EtOH (95%) in olive oil (or cottonseed oil)): < 100 mg/mL
solubility ([2]; 10% EtOH (95%) in olive oil (or cottonseed oil), 10 ml Slightly soluble (0.001 g/ml; 1 mg/ml), 10 mg in 10% EtOH (95%) in olive oil (or cottonseed oil)): > 1 mg/mL
solubility ([2]; Acetate saline 100 mM, Mannitol 250 mM, pH 4.3, 10 mg in Acetate saline 100 mM, Mannitol 250 mM (pH 4.3), read-out: 0.01 ml Very soluble (1 g/ml)): < 1000 mg/mL
solubility ([2]; Acetate saline 100 mM, Mannitol 250 mM, pH 4.3, 10 mg in Acetate saline 100 mM, Mannitol 250 mM (pH 4.3), read-out: 0.5 ml Soluble (0.02 g/ml; 20 mg/ml)): < 20 mg/mL
solubility ([2]; Acetate saline 100 mM, Mannitol 250 mM, pH 4.3, 10 mg in Acetate saline 100 mM, Mannitol 250 mM (pH 4.3), read-out: 1 ml Sparingly soluble (0.01 g/ml; 10 mg/ml)): < 10 mg/mL
solubility ([2]; Acetate saline 100 mM, Mannitol 250 mM, pH 4.3, 0.1 ml Freely soluble (0.1 g/ml), 10 mg in Acetate saline 100 mM, Mannitol 250 mM (pH 4.3)): < 100 mg/mL
solubility ([2]; Acetate saline 100 mM, Mannitol 250 mM, pH 4.3, 10 ml Slightly soluble (0.001 g/ml; 1 mg/ml), 10 mg in Acetate saline 100 mM, Mannitol 250 mM (pH 4.3)): > 1 mg/mL
solubility ([2]; Acetate saline 100 mM, Mannitol 250 mM, pH 4.3, Acetate saline 100 mM, Mannitol 250 mM (pH 4.3), read-out: Results USP Definition: solubility): 2 to 3 mg/mL
solubility ([2]; Acetic acid 1% (glacial), 10 mg in Acetic acid 1% (glacial), read-out: 0.01 ml Very soluble (1 g/ml)): < 1000 mg/mL
solubility ([2]; Acetic acid 1% (glacial), 10 mg in Acetic acid 1% (glacial), read-out: 0.5 ml Soluble (0.02 g/ml; 20 mg/ml)): > 20 mg/mL
solubility ([2]; Acetic acid 1% (glacial), 10 mg in Acetic acid 1% (glacial), read-out: 1 ml Sparingly soluble (0.01 g/ml; 10 mg/ml)): > 10 mg/mL
solubility ([2]; Acetic acid 1% (glacial), 0.1 ml Freely soluble (0.1 g/ml), 10 mg in Acetic acid 1% (glacial)): > 100 mg/mL
solubility ([2]; Acetic acid 1% (glacial), 10 ml Slightly soluble (0.001 g/ml; 1 mg/ml), 10 mg in Acetic acid 1% (glacial)): > 1 mg/mL
solubility ([2]; Acetone (USP), 10 mg in Acetone (USP), read-out: 0.01 ml Very soluble (1 g/ml)): < 1000 mg/mL
SMILES: C[C@@H](O)[C@@H]1NC(=O)[C@H](CCCCN)NC(=O)[C@@H](Cc2c[nH]c3ccccc23)NC(=O)[C@H](Cc2c[nH]c3ccccc23)NC(=O)[C@H](Cc2ccccc2)NC(=O)CCCNC(=O)CCCN(CC(N)=O)C(=O)[C@H](Cc2ccccc2)NC1=O [Veldoreotide Acetate, Cyclo(-γ-aminobutyryl-L-phenylalanyl-L-tryptophanyl-D-tryptophanyl-L-lysyl-L-threonyl-L-phenylalanyl-N-carbamoylmethyl-γ-aminobutyryl), acetate salt]
